Experimental data as given in ChEMBL document CHEMBL1201862, “PubChem BioAssay data set” (2004).
Activity calls are given as the source filed them.

What was measured:
[1] = biological target: G-protein coupled receptor 35 (Homo sapiens, UniProt Q9HC97); experiment: SAR Analysis for the identification of Selective Antagonists of ERK1/2 Activity in GPR35-Overexpressing U2OS Cells. [Related pubchem assays: 2079, 2058 ]; type: functional, cell-based
[2] = biological target: T1, Tyrosine-protein phosphatase non-receptor type 22 (Homo sapiens, UniProt Q9Y2R2); experiment: inhibition of lymphoid tyrosine phosphatase LYP – biochemical, pCAP fluorogenic substrate, fluorescence, set 3, SAR follow-up (AID 449727); type: functional
T1 sequence (Q9Y2R2 whole entry): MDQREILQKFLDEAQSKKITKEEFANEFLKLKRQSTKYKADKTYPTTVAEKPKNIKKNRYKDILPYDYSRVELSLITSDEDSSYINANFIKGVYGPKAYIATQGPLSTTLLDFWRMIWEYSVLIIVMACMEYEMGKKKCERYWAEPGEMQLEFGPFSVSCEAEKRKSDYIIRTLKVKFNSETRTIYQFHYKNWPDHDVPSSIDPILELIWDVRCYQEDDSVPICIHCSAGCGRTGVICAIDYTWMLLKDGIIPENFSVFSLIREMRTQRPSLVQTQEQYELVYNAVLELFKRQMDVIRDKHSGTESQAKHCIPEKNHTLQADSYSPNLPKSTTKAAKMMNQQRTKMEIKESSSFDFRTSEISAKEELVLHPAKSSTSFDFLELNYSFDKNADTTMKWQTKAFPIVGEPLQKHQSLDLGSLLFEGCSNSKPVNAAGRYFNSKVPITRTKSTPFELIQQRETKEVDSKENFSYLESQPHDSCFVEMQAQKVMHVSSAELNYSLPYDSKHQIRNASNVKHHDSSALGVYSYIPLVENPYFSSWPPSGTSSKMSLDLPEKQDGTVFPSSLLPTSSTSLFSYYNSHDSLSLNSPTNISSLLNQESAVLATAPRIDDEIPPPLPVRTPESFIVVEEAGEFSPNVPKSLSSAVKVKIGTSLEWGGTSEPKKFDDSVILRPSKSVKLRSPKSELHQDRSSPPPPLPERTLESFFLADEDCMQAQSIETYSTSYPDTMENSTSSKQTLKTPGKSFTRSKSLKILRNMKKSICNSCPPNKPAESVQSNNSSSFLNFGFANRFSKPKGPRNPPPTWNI

[3] = biological target: T2, Tyrosine-protein phosphatase non-receptor type 7 (Homo sapiens, UniProt P35236); experiment: inhibition of hematopoietic tyrosine phosphatase HePTP – biochemical, set 2, SAR follow-up (AID 449736); type: functional
T2 sequence (P35236 whole entry): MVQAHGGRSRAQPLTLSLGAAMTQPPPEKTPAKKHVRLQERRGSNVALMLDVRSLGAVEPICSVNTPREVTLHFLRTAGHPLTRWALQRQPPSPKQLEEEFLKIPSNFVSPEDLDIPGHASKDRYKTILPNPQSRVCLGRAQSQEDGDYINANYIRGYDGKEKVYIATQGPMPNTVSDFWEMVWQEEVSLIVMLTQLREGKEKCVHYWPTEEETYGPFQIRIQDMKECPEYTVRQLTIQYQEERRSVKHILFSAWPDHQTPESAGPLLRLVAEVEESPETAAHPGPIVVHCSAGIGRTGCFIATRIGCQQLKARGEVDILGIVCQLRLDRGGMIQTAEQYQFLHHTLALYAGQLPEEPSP

[4] = biological target: T3, Tyrosine-protein phosphatase non-receptor type 12 (Homo sapiens, UniProt Q05209); experiment: SAR Selectivity Analysis of small molecule inhibitors of PEST using pCAP in a fluorescence assay. [Related pubchem assays (depositor defined):AID1779, AID1784, AID2135]; type: functional
T3 sequence (Q05209 whole entry): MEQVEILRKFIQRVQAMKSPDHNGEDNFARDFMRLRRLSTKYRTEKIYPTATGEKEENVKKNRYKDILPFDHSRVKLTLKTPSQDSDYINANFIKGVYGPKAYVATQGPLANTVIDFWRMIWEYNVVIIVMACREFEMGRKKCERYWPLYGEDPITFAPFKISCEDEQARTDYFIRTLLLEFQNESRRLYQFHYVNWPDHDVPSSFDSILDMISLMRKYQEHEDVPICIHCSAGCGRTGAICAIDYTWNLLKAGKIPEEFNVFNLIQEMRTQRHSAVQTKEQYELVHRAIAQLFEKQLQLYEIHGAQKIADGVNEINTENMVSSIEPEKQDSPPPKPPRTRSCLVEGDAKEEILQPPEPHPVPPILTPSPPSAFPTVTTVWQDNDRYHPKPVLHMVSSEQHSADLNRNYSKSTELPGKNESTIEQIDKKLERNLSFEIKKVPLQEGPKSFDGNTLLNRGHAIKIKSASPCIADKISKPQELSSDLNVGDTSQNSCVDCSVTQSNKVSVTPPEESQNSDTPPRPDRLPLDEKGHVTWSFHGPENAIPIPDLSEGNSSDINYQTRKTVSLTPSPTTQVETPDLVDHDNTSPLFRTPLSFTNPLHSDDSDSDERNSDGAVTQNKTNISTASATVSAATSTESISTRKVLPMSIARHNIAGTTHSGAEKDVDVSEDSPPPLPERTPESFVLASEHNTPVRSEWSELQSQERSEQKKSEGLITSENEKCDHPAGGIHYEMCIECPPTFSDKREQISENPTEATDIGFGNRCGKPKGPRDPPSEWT

[5] = biological target: G-protein coupled receptor 55 (Homo sapiens, UniProt Q9Y2T6); experiment: blockers of GPR55 signalling, imaged – imaging, image-based, counter-screen for GPR35 antagonist project, SAR follow-up (AID 2397); type: functional
Chain of G-protein coupled receptor 55 (Q9Y2T6 whole entry): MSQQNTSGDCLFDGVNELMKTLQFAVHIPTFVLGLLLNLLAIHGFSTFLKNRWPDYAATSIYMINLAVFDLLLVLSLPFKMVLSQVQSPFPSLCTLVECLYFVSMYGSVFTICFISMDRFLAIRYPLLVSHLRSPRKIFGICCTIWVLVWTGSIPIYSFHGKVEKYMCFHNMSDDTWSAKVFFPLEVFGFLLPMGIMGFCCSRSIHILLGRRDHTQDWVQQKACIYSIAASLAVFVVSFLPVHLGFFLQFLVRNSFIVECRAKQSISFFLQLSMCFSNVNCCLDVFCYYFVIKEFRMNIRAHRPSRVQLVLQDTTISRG

[6] = biological target: T1, Tyrosine-protein phosphatase non-receptor type 22; experiment: SAR LYP1 Fluorescent Assay using OMFP substrate for In Vitro dose response studies - Set 3. [Related pubchem assays (depositor defined):AID1779, AID1784, AID2140, AID2686]; type: functional
[7] = test system: Vero; experiment: cells; type: functional; conditions: Chlorocebus sabaeus
[8] = Luminescent dose response cell-based high throughput screening assay for inhibitors of the Janus kinase 2 mutant JAK2V617F. [Related pubchem assays: 1446 (Primary screen.), 1521 (Confirmation assay.), 1486 (Counter screen.)]; type: functional
[9] = test system: Vero; experiment: cells; type: functional, cell-based; conditions: Chlorocebus sabaeus
[10] = biological target: Nucleotide-binding oligomerization domain-containing protein 1 (Homo sapiens, UniProt Q9Y239); experiment: blockers of NOD1 pathway activity – revised, SAR follow-up (AID 2333); type: functional
Chain of Nucleotide-binding oligomerization domain-containing protein 1 (Q9Y239 whole entry, the tested form may be a part): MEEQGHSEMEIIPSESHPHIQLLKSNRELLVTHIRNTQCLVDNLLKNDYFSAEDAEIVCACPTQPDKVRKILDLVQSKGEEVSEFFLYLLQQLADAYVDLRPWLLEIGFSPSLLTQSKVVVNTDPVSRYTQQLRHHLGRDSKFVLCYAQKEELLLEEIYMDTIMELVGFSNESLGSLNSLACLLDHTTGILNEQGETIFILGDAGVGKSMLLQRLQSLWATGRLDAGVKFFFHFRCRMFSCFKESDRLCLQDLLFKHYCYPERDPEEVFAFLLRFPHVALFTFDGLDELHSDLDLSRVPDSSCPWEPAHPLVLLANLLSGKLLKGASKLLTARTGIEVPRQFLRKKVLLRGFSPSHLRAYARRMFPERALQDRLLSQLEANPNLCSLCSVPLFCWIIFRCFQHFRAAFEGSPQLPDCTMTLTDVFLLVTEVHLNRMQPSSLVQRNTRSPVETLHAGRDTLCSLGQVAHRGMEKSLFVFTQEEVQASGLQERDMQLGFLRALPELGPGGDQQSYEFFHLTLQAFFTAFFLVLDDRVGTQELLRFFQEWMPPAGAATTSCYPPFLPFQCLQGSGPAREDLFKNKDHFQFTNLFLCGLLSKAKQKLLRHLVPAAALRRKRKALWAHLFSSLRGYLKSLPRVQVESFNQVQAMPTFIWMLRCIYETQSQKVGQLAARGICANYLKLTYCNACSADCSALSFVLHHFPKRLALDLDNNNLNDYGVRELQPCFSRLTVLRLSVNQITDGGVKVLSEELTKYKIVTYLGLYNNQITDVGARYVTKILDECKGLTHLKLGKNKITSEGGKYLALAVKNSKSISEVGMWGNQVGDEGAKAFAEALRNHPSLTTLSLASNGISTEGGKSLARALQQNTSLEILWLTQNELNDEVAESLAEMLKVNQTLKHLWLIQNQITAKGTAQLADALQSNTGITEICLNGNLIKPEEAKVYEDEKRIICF

[11] = biological target: Tumor necrosis factor (Homo sapiens, UniProt P01375); experiment: analog potency on TNFa NF-kB signaling – cell-based, revised, SAR follow-up (AID 2337); type: functional
Chain of Tumor necrosis factor (P01375 whole entry): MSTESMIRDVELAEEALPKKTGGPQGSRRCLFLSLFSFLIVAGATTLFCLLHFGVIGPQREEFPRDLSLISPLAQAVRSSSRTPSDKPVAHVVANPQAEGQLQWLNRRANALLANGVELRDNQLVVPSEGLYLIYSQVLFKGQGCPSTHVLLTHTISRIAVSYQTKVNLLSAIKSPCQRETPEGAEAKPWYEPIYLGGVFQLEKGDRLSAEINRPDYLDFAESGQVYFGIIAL

[12] = test system: HEK293; experiment: NOD2 signaling inhibitors in MDP-stimulated cells, cell-based, uHTS, luminescence (AID 2001); type: functional; conditions: Homo sapiens
[13] = test system: HEK293; experiment: cells; type: functional, cell-based; conditions: Homo sapiens
[14] = test system: HEK293; experiment: cells; type: functional, cell-based; conditions: Homo sapiens; remark: listed apart in the source
[15] = test system: HEK293; experiment: inhibition of NOD1-driven NF-kB reporter – cell-based, luminescence, uHTS, primary screen (AID 1578); type: functional; conditions: Homo sapiens
[16] = test system: HEK293; experiment: cells; conditions: Homo sapiens
[17] = biological target: T4, COUP transcription factor 2 (Homo sapiens, UniProt P24468); experiment: Luminescence-based cell-based high throughput dose response assay to identify inhibitors of COUP-TFII (NR2F2).; type: functional;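 further: HEK293 cells transiently cotransfected with COUP-TFII expression vector and reporter; luciferase reporter luminescence driven by COUP-TFII from the pX2-168 reporter plasmid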
T4 sequence (P24468 whole entry): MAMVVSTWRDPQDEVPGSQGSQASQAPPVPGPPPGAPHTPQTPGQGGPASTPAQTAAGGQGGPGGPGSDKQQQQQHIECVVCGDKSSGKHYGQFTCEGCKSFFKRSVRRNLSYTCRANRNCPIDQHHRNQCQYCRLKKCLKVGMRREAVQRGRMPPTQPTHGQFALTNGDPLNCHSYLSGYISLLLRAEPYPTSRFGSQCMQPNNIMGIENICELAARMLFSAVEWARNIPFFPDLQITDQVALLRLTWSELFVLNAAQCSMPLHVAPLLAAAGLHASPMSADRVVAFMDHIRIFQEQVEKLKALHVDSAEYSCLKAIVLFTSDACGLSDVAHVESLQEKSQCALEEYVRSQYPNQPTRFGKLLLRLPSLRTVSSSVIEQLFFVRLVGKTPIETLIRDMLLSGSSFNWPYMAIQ

[18] = biological target: T5, CAAX prenyl protease 2 (Saccharomyces cerevisiae S288c, UniProt Q03530); type: biochemical
T5 sequence (Q03530 whole entry): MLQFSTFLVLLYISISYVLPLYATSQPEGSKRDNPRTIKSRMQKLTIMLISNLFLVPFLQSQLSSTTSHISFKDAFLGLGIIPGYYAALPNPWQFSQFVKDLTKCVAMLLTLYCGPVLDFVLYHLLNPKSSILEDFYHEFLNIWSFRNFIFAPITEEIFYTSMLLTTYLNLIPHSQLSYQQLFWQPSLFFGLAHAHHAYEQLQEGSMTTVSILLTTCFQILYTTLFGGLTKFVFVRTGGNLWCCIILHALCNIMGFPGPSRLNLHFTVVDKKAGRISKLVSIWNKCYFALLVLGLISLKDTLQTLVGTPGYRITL

[19] = biological target: CAAX prenyl protease 1 (Saccharomyces cerevisiae S288c, UniProt P47154); experiment: yeast CAAX protease Ste24 inhibition – biochemical, S. cerevisiae, plate reader, cherry-pick, dose response (AID 488815)
Chain of CAAX prenyl protease 1 (P47154 whole entry): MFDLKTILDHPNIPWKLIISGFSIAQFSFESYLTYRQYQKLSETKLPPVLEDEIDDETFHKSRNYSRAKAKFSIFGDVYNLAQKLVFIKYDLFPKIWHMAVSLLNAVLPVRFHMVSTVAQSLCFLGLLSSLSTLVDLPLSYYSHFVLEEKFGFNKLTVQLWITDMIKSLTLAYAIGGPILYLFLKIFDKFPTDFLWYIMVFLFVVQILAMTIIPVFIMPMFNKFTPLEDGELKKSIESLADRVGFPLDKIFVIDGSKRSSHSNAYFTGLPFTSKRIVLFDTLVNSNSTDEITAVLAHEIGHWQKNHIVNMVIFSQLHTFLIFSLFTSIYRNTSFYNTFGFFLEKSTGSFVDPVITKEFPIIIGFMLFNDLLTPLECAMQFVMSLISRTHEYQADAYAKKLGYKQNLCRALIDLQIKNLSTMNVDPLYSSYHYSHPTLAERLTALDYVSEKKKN

[20] = test system: INS1; experiment: INS-1E survival protection against cytokine death – cell-based, luminescence, retest, dose response (AID 449756); type: functional; conditions: Rattus norvegicus, INS1;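 further: cell death triggered by IL-1 beta plus TNF-alpha plus IFN-gamma mixture; protective hits raise ATP signal compared with cytokine alone wells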
[21] = viability loss of HMLE_sh_eGFP cells – cell-based, luminescence, counter-screen for HMLE_sh_ECad selective toxicity project, dose response (AID 463074); type: functional, Homo sapiens;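 further: HMLE human mammary epithelial cells expressing control shRNA against eGFP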
[22] = Luminescence Cell-Based Dose Retest to Confirm Inhibitors of Cancer Stem Cells. [Related pubchem assays (depositor defined):AID2717, AID2721]; type: functional; conditions: Homo sapiens
[23] = cells; type: functional, cell-based; conditions: HEK-CNG
[24] = biological target: Galanin receptor type 2 (Homo sapiens, UniProt O43603); experiment: Dose Response cell-based high-throughput screening assay to identify antagonists of galanin receptor 2 (GALR2). [Related pubchem assays: 828, 866 ]; type: functional
Chain of Galanin receptor type 2 (O43603 whole entry): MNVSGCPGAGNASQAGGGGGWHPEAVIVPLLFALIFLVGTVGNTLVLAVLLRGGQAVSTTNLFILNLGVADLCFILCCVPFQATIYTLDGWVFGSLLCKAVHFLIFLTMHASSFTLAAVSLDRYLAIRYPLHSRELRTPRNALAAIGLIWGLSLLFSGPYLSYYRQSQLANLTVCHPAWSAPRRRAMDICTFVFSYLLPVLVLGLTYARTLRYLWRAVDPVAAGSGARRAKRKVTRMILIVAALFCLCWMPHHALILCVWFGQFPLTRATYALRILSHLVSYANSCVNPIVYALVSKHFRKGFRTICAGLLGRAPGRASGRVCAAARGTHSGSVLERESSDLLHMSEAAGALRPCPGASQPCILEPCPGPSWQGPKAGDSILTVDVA

[25] = biological target: Protein Wnt-3a (Mus musculus, UniProt P27467); experiment: antagonism of Wnt3a pathway luciferase reporter – Wnt-LIGHT cells, luminescence, selectivity assay for Gli-SUFU antagonist project, dose response (AID 651570); type: functional; conditions: read-out: IC50_Mean;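 further: Wnt-LIGHT reporter cells stimulated with conditioned medium from Wnt3a-producing cells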
Chain of Protein Wnt-3a (P27467 whole entry): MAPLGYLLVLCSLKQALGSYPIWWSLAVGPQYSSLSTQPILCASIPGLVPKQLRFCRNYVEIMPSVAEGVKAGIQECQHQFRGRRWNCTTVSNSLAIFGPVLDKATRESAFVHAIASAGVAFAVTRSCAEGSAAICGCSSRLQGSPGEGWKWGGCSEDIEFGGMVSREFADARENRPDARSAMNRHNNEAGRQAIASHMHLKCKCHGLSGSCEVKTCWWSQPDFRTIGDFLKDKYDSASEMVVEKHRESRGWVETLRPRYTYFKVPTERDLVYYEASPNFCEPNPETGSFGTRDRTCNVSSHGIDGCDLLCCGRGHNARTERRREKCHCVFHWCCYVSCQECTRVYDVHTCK

[26] = biological target: T6, Galanin receptor type 3 (Homo sapiens, UniProt O60755); experiment: Fluorescence-based cell-based primary high throughput dose response assay to identify antagonists of the Galanin Receptor 3 (GalR3).; type: functional
T6 sequence (O60755 whole entry): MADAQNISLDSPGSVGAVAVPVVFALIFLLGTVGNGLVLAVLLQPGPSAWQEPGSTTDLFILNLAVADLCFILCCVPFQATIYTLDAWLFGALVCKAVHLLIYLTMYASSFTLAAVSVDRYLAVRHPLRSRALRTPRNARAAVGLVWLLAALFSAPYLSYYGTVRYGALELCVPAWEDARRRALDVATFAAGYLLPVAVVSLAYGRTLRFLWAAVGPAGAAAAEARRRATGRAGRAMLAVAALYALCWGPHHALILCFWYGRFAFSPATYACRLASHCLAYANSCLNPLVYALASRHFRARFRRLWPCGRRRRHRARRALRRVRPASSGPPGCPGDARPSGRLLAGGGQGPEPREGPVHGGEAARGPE

[27] = biological target: SUMO E1/E2 (Homo sapiens, UniProt P63279+Q9UBE0+Q9UBT2); experiment: SAR analysis of SUMOylation using HTRF in an in-Vitro dose response assay. [Related pubchem assays (depositor defined):AID2006, AID2011, AID2018, AID2069, AID2658]; type: functional
Chain of SUMO E1/E2 (Q9UBE0 whole entry): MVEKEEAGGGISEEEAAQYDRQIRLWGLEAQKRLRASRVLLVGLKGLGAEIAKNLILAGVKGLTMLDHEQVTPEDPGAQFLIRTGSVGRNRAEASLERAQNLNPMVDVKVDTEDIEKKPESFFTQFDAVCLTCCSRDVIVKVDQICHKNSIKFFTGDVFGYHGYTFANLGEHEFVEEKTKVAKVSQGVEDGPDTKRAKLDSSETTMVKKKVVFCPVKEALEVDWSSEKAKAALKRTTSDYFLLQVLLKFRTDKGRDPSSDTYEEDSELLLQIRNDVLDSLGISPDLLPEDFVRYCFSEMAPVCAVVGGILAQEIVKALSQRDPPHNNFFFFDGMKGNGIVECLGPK
Chain of SUMO E1/E2 (Q9UBT2 whole entry): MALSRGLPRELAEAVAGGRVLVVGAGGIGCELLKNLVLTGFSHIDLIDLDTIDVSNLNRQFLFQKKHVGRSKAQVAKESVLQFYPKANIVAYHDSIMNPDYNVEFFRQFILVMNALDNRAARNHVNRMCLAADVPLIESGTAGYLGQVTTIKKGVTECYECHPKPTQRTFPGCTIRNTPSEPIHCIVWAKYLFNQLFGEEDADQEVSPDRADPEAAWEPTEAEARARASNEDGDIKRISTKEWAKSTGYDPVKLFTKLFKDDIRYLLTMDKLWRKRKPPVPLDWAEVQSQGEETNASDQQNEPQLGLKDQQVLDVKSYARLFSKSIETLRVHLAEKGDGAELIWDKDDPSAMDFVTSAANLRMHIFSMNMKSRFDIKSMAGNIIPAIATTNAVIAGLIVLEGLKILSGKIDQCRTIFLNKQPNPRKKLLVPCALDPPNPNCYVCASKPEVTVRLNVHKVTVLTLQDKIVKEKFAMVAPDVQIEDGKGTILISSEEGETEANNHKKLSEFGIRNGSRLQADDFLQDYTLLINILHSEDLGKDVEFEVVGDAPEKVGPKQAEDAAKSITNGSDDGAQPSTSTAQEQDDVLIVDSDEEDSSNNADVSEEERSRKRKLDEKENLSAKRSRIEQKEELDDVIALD
Chain of SUMO E1/E2 (P63279 whole entry): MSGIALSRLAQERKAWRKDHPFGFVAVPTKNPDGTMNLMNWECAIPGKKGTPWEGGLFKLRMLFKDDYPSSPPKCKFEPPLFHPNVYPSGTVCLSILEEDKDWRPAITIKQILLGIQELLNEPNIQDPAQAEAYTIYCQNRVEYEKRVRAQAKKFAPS

Chain of G-protein coupled receptor 35 (Q9HC97 whole entry): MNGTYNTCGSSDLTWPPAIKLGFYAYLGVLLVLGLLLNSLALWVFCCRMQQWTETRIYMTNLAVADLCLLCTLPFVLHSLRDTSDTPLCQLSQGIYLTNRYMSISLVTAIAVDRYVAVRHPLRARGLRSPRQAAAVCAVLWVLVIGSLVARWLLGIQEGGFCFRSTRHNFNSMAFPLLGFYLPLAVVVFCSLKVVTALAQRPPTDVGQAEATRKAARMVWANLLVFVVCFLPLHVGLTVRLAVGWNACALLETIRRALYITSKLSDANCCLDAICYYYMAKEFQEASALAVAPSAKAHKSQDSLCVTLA

COc1ccc(/C=C2\SC(=S)N(CCCC(=O)Nc3ccc(C(=O)O)c(O)c3)C2=O)cc1OC
IC50 [1]: 0.522 µM (active)
IC50 [2]: 58.5 µM (active)
IC50 [3]: 9.74 µM (active)
IC50 [4]: 17.9 µM (active)
IC50 [5]: > 32 µM (inactive)
IC50 [6]: > 100 µM (inactive)

COc1cc(/C=C2\COC/C(=C\c3ccc(O)c(OC)c3)C2=O)ccc1O
CC50 [7]: 5.27 µM (active)
IC50 [8]: 1.15 µM (active)
IC50 [9]: > 25 µM (active)

CSc1ccccc1OCc1cc(C(=O)N2CCC(c3ccncc3)CC2)no1
IC50 [10]: 3.18 µM (active)
IC50 [11]: 3.22 µM (active)
IC50 [12]: 5.04 µM (active)
IC50 [13]: 8.95 µM (active)
IC50 [14]: 3.97 µM (active)
EC50 [15]: 2.09 µM (active)
IC50 [16]: > 20 µM (inactive)
IC50 [17]: 10.3 µM (inactive)

Cc1cc(C)c2cc(C#N)c(NCCCNC(=O)CCC(=O)O)nc2c1
AC50 [18]: 36.9 µM (active)
AC50 [19]: 29.9 µM (active)

CCCCOc1[nH]cnc2c3cc(F)ccc3nc1-2
AC50 [20]: 4.34 µM (active)
AC50 [21]: 52.7 µM (active)
AC50 [22]: > 195 µM (inactive)
EC50 [23]: > 29.9 µM (inactive)
IC50 [24]: 472 µM (not active)
IC50 [25]: 1.56 µM (active)
IC50 [26]: 2.19 µM (active)

Cc1ccc(N=Cc2sccc2C)cc1C
IC50 [27]: > 100 µM (inactive)
